The values that follow come from ChEMBL document CHEMBL4699440, “Comprehensive review on the anti-bacterial activity of 1,2,3-triazole hybrids” (Eur J Med Chem, 2019).

Values after ≈ are worked out from the molar mass of the structure shown. Numbered stars: 1 amine (or outer) side, 2 acyl side, 3 side chain; on linkers, the order of the positions; unused ones are H or OH. Square brackets hold non-standard residues; d marks the D form. Peptide text beside a SMILES is read from it. * marks the point of attachment. X1 = CC(C)(C(=O)c1ccc(C(F)(F)F)cc1)C(=O)*; βPro(3R) = O=C([C@@H]1CCN([*:1])C1)[*:2]; Phe(ol) = N[C@H](CO)Cc1ccccc1; Aib = CC(C)(N)C(=O)O

Data set [1] relates to Micrococcus luteus. Kind of data set: Antibacterial activity against Micrococcus luteus IFC 12708 incubated for 24 hrs by broth dilution method. The class given is functional.
The subject of data set [2] is Staphylococcus aureus. Description: Antibacterial activity against Staphylococcus aureus ATCC 29737 incubated for 24 hrs. The data set is classed as functional.
Data set [3] concerns Bacillus cereus. Kind of data set: Antibacterial activity against Bacillus cereus RCMB-010067 assessed as diameter of inhibition zone at 5 mg/ml by diffusion technique. Particulars: read-out: IZ. The class given is functional.
Data set [4] relates to Staphylococcus aureus. Kind of data set: Antibacterial activity against Staphylococcus aureus ATCC 6538p incubated for 24 hrs by broth dilution method. The data set is classed as functional. In general terms: Broth dilution looks for growth in wells or tubes with falling amounts of substance.
For data set [5], the system named is Pseudomonas fluorescens. Description: Antibacterial activity against Pseudomonas fluorescens NCIM 2173 incubated for 24 hrs. The class given is functional.
For data set [6], the system named is Salmonella typhimurium. Kind of data set: Antibacterial activity against Salmonella typhimurium ATCC 14028 incubated for 24 hrs by broth dilution method. The data set is classed as functional, Salmonella enterica subsp. enterica serovar Typhimurium. As to conditions: Salmonella enterica.
The subject of data set [7] is Micrococcus luteus. Kind of data set: Antibacterial activity against Micrococcus Luteus ATCC 398 incubated for 24 hrs. The class given is functional.
In data set [8] the test system is Bacillus spizizenii. Description: Antibacterial activity against Bacillus subtilis ATCC 6633 incubated for 24 hrs by broth dilution method. The data set is classed as functional.
Data set [9] deals with Sphingomonas paucimobilis. Description: Antibacterial activity against Flavobacterium devorans ATCC 10829 incubated for 24 hrs. The class given is functional.
Data set [10] concerns Proteus vulgaris. Kind of data set: Antibacterial activity against Proteus vulgaris ATCC 3851 incubated for 24 hrs by broth dilution method. The data set is classed as functional.
The test system of data set [11] is Escherichia coli. Kind of data set: Antibacterial activity against Escherichia coli ATCC 25922 incubated for 24 hrs by broth dilution method. The class given is functional.
For data set [12], the system named is Bacillus cereus. Kind of data set: Antibacterial activity against Bacillus cereus ATCC 6630 incubated for 24 hrs. The data set is classed as functional.
For data set [13], the system named is Staphylococcus aureus. Description: Antibacterial activity against Staphylococcus aureus RCMB-010010 assessed as diameter of inhibition zone at 5 mg/ml by diffusion technique. The class given is functional. As to conditions: read-out: IZ.
Data set [14] is described as follows: Cytotoxicity against human KB cells. The class given is cell-based. Particulars: human, KB cells; read-out: MIC.

With `CC1(C)S[C@@H]2[C@H](NC(=O)[C@H](N)c3ccccc3)C(=O)N2[C@H]1C(=O)O` [AMPICILLIN], the MIC in data set [1] is 1.56 µg/mL (≈ 4.46 µM); in data set [2], 2 µg/mL (≈ 5.72 µM); in data set [4], 1.56 µg/mL (≈ 4.46 µM); in [5], 2 µg/mL (≈ 5.72 µM); in [6], 1.56 µg/mL (≈ 4.46 µM); in data set [7], 2 µg/mL (≈ 5.72 µM). Besides, the MIC worked out at 1.56 µg/mL (≈ 4.46 µM) in data set [8]; 2 µg/mL (≈ 5.72 µM) in data set [9]; 1.56 µg/mL (≈ 4.46 µM) in [10]; 1.56 µg/mL (≈ 4.46 µM) in [11]; 2 µg/mL (≈ 5.72 µM) in data set [12]. Further, the zone of inhibition at 5000 µg/mL was found to be 23.8 mm in data set [3] and 32.4 mm in data set [13].

Take `CC(C)C[C@H](NC(=O)CNC(=O)C(C)(C)NC(=O)[C@@H](NC(=O)C(C)(C)NC(=O)[C@H](CCC(N)=O)NC(=O)[C@H](C)NC(=O)C(C)(C)NC(=O)[C@H](C)NC(=O)C(C)(C)NC(=O)[C@@H]1CCN(C(=O)C(C)(C)C(=O)c2ccc(C(F)(F)F)cc2)C1)C(C)C)C(=O)NC(C)(C)C(=O)N1CCC[C@H]1C(=O)N[C@H](C(=O)NC(C)(C)C(=O)NC(C)(C)C(=O)N[C@@H](CCC(N)=O)C(=O)N[C@@H](CCC(N)=O)C(=O)N[C@H](CO)Cc1ccccc1)C(C)C` (X1-[βPro(3R)][Aib]A[Aib]AQ[Aib]V[Aib]GL[Aib]PV[Aib][Aib]QQ[Phe(ol)]): the MCC in data set [14] was found to be 2.9 µg/mL.

The MIC is the smallest concentration in the dilution series that meets the test's criterion for growth inhibition.
